Assay results from ChEMBL document CHEMBL5608182, “Synthesis and evaluation of neuroactive steroids with novel pharmacophore at C-21 let identify a compound with advantageous PK profile and higher EC50 and Emax as PAM on GABAA receptor” (Eur J Med Chem, 2024).

Tests used:
Cytochrome P450 2D6 = Cytochrome P450 2D6 (Homo sapiens, UniProt P10635); assay: Inhibition of CYP2D6 (unknown origin); format: ADME
[1] = Metabolic stability in Sprague-Dawley rat liver microsomes assessed as intrinsic clearance at 1 uM preincubated for 10 mins followed by NADPH addition by LC-MS analysis; format: ADME, Microsome; conditions: read-out: CLH
[2] = Acid dissociation constant, pKa of the compound; format: physicochemical
[3] = MRTlast in male Sprague-Dawley rat at 6.1 micromol/kg, iv administered as single dose and measured upto 24 hrs by LC-MS/MS analysis; format: ADME, organism-based; conditions: in vivo, dose 6.1 µmol/kg
[4] = Metabolic stability in Sprague-Dawley rat liver microsomes assessed as compound remaining at 1 uM preincubated for 10 mins followed by NADPH addition by LC-MS analysis; format: ADME, Microsome; conditions: read-out: Stability
[5] = MRTlast in male Sprague-Dawley rat at 24.4 micromol/kg, IG administered as single dose and measured upto 24 hrs by LC-MS/MS analysis; format: ADME; conditions: in vivo, po, dose 24.4 µmol/kg
[6] = Metabolic stability in human liver microsomes assessed as intrinsic clearance at 1 uM preincubated for 10 mins followed by NADPH addition by LC-MS analysis; format: ADME, Microsome; conditions: read-out: CLH
[7] = Half life in male Sprague-Dawley rat at 6.1 micromol/kg, iv administered as single dose and measured upto 24 hrs by LC-MS/MS analysis; format: ADME, organism-based; conditions: in vivo, dose 6.1 µmol/kg
[8] = Cmax in male Sprague-Dawley rat at 24.4 micromol/kg, IG administered as single dose and measured upto 24 hrs by LC-MS/MS analysis; format: ADME; conditions: in vivo, po, dose 24.4 µmol/kg
[9] = molecular target: Gamma-aminobutyric acid receptor subunit alpha-4/beta3/delta (Homo sapiens, UniProt O14764+P28472+P48169); assay: Positive allosteric modulation of extrasynaptic alpha4beta3delta GABA-A receptor (unknown origin) transfected in CHO cells assessed as potentiation of GABA-induced peak current amplitude at -80 mV holding potential preincubated for 30 secs followed by GABA stimulation for 2 secs by manual patch assay; format: cell-based
[10] = Drug concentration in Sprague-Dawley rat brain at 24.4 micromol/kg, IG measured after 6 hrs by LC-MS/MS analysis; format: ADME, tissue-based; conditions: in vivo, po, dose 24.4 µmol/kg
[11] = Initial drug concentration in male Sprague-Dawley rat at 6.1 micromol/kg, iv administered as single dose and measured upto 24 hrs by LC-MS/MS analysis; format: ADME, organism-based; conditions: in vivo, dose 6.1 µmol/kg
[12] = AUClast in male Sprague-Dawley rat at 6.1 micromol/kg, iv administered as single dose and measured upto 24 hrs by LC-MS/MS analysis; format: ADME, organism-based; conditions: in vivo, dose 6.1 µmol/kg
[13] = Half life in male Sprague-Dawley rat at 24.4 micromol/kg, IG administered as single dose and measured upto 24 hrs by LC-MS/MS analysis; format: ADME; conditions: in vivo, po, dose 24.4 µmol/kg
[14] = Metabolic stability in human liver microsomes assessed as compound remaining at 1 uM preincubated for 10 mins followed by NADPH addition by LC-MS analysis; format: ADME, Microsome; conditions: read-out: Stability
Cytochrome P450 2C9 = Cytochrome P450 2C9 (Homo sapiens, UniProt P11712); assay: Inhibition of CYP2C9 (unknown origin); format: ADME
[15] = Apparent volume of distribution in male Sprague-Dawley rat at 6.1 micromol/kg, iv administered as single dose and measured upto 24 hrs by LC-MS/MS analysis; format: ADME, organism-based; conditions: in vivo, dose 6.1 µmol/kg, read-out: Vz
[16] = Drug concentration in Sprague-Dawley rat brain at 24.4 micromol/kg, IG measured after 2 hrs by LC-MS/MS analysis; format: ADME, tissue-based; conditions: in vivo, po, dose 24.4 µmol/kg
[17] = molecular target: Gamma-aminobutyric acid receptor subunit alpha-4/beta3/delta (Homo sapiens) (UniProt P28472+P48169+O14764); assay: Positive allosteric modulation of extrasynaptic alpha4beta3delta GABA-A receptor (unknown origin) transfected in CHO cells assessed as potentiation of GABA-induced peak current amplitude by measuring maximal efficacy at 0.01 to 10 uM at -80 mV holding potential preincubated for 30 secs followed by GABA stimulation for 2 secs by manual patch assay relative to control; format: cell-based; conditions: filed as positive allosteric modulator, dose 0.01-10 µM, time 32.0 sec
[18] = AUClast in male Sprague-Dawley rat at 24.4 micromol/kg, IG administered as single dose and measured upto 24 hrs by LC-MS/MS analysis; format: ADME; conditions: in vivo, po, dose 24.4 µmol/kg
Cytochrome P450 2B6 = molecular target: T1, Cytochrome P450 2B6 (Homo sapiens, UniProt P20813); assay: Inhibition of CYP2B6 (unknown origin); format: ADME
T1 sequence (P20813 whole entry): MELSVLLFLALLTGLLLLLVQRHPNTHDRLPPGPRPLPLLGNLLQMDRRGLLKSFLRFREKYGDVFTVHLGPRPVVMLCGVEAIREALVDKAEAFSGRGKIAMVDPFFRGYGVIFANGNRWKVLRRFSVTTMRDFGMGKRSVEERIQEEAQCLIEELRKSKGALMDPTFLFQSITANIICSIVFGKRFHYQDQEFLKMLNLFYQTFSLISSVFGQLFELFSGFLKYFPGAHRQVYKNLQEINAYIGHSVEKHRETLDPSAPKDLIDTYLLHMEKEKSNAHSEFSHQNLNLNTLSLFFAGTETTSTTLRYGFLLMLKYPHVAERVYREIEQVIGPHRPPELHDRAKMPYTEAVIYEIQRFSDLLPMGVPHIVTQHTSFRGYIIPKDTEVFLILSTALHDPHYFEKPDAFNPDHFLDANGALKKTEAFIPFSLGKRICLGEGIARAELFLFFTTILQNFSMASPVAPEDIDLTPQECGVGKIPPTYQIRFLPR

[19] = Apparent volume of distribution in male Sprague-Dawley rat at 24.4 micromol/kg, IG administered as single dose and measured upto 24 hrs by LC-MS/MS analysis; format: ADME; conditions: in vivo, po, dose 24.4 µmol/kg
[20] = Tmax in male Sprague-Dawley rat at 24.4 micromol/kg, IG administered as single dose and measured upto 24 hrs by LC-MS/MS analysis; format: ADME; conditions: in vivo, po, dose 24.4 µmol/kg
[21] = Bioavailability in male Sprague-Dawley rat at 24.4 micromol/kg, IG administered as single dose and measured upto 24 hrs by LC-MS/MS analysis; format: ADME, organism-based; conditions: in vivo, po, 24.4 µmol/kg
[22] = molecular target: GABA-A receptor; alpha-1/beta-2/gamma-2 (Homo sapiens) (UniProt P14867+P47870+P18507); assay: Positive allosteric modulation of synaptic alpha1beta2gamma2 GABA-A receptor (unknown origin) transfected in LTK cells assessed as potentiation of GABA-induced peak current amplitude by measuring maximal efficacy at 0.01 to 10 uM at -80 mV holding potential preincubated for 30 secs followed by GABA stimulation for 2 secs by Q-patch assay relative to control; format: cell-based; conditions: filed as positive allosteric modulator, dose 0.01-10 µM, time 32.0 sec

Chain of Gamma-aminobutyric acid receptor subunit alpha-4/beta3/delta (P28472 whole entry): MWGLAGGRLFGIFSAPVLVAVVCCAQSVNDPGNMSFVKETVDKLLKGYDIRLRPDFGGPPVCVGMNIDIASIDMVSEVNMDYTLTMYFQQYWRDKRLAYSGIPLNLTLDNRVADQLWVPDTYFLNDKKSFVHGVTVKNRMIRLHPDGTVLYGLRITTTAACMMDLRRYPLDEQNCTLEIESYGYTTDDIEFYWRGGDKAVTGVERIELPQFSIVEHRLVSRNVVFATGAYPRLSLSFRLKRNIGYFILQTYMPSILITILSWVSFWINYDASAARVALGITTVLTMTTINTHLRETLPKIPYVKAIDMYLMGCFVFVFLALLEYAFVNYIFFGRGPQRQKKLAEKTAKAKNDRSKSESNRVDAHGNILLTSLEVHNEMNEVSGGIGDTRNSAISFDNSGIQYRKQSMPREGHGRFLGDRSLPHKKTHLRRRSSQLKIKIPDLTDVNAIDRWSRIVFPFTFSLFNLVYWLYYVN
Chain of Gamma-aminobutyric acid receptor subunit alpha-4/beta3/delta (P48169 whole entry): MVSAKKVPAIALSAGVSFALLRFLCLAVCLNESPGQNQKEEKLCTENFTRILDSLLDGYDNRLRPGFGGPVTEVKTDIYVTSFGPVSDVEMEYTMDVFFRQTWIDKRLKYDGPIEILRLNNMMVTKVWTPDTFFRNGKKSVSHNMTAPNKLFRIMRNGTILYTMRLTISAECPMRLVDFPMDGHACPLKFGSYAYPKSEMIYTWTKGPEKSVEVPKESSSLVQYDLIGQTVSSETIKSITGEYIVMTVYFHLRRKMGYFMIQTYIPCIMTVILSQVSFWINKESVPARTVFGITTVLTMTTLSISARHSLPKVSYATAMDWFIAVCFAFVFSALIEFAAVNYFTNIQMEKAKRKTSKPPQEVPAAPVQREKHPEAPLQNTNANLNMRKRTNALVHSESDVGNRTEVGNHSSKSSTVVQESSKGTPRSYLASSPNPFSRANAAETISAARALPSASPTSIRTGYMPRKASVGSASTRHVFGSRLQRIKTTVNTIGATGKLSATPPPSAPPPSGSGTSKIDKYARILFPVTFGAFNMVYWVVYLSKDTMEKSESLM
Chain of Gamma-aminobutyric acid receptor subunit alpha-4/beta3/delta (O14764 whole entry): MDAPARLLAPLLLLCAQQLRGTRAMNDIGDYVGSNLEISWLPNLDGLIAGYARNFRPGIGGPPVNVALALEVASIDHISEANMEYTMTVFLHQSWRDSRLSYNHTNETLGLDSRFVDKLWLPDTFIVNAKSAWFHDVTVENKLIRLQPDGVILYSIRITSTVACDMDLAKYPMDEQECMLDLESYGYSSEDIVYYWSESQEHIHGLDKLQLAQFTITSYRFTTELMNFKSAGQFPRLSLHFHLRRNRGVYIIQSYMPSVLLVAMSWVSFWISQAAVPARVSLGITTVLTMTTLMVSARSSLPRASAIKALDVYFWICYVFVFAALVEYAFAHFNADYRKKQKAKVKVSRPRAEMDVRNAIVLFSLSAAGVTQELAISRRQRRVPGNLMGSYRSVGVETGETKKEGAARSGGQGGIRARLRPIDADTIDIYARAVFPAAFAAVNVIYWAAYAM
Chain of Cytochrome P450 2D6 (P10635 whole entry): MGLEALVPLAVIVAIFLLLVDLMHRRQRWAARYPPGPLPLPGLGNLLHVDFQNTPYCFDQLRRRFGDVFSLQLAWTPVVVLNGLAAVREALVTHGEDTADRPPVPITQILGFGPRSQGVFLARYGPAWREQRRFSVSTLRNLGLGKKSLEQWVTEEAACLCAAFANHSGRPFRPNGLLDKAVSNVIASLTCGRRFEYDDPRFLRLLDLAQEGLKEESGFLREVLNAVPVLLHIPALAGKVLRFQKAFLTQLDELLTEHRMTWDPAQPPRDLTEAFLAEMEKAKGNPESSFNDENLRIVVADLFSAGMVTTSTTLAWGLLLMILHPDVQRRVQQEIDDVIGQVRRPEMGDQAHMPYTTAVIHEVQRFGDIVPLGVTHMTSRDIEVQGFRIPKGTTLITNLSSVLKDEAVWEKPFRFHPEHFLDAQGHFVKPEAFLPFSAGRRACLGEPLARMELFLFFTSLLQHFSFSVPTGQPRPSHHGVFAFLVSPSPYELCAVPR
Chain of Cytochrome P450 2C9 (P11712 whole entry): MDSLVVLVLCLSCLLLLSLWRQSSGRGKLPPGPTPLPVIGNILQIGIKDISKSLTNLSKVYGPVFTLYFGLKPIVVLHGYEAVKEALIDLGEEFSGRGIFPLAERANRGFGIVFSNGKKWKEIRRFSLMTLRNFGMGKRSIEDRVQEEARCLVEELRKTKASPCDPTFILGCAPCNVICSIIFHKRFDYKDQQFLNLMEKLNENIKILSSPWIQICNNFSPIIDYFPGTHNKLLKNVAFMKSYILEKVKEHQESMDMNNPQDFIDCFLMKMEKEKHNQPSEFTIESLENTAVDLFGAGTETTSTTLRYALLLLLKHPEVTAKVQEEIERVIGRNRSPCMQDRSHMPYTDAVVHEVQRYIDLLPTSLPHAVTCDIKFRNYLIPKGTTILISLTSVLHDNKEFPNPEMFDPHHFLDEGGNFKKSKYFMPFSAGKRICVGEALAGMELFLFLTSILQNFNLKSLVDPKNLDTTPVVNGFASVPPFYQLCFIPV

SMILES | IC50 (Cytochrome P450 2D6) [µM] | CLint scaled at 1 µM [1] [mL/min/kg] | pKa [2] | MRT last at 24 h [3] [h] | remaining at 1 µM [4] [%] | MRT last at 24 h [5] [h] | CLint scaled at 1 µM [6] [mL/min/kg] | half-life [7] [h] | Cmax [8] [nM] | EC50 [9] [µM] | Ct [10] [nmol/kg] | C0 at 24 h [11] [nM] | AUC(0-t) at 24 h [12] [µM·h] | half-life [13] [h] | remaining at 1 µM [14] [%] | IC50 (Cytochrome P450 2C9) [µM] | Vd [15] [L/kg] | Ct [16] [nmol/kg] | Emax [17] [%] | AUC(0-t) at 24 h [18] [µM·h] | further results
C[C@@]1(O)CC[C@H]2[C@H](CC[C@@H]3[C@@H]2CC[C@]2(C)[C@@H](C(=O)Cn4cc(C#N)cn4)CC[C@@H]32)C1 [ZURANOLONE] | > 30 | 51.8 | > 12 | 2.12 | 40 | 4.46 | 10.6 | 2.45 | 2290 | 0.135 | 193 | 3440 | 5.21 | 3.8 | 72 | > 30 | 4.66 | 2220 | 1040 | 12 | IC50 (Cytochrome P450 2B6): > 30 µM; Vz [19]: 10.54 L/kg; Tmax [20]: 1.17 h; bioavailability [21]: 57.7%; Emax [22]: 980%
C[C@@]1(O)CC[C@H]2[C@H](CC[C@@H]3[C@@H]2CC[C@]2(C)[C@@H](C(=O)Cn4cnn(-c5cc(F)nc(F)c5)c4=O)CC[C@@H]32)C1 | > 30 | 23 | > 12 | 4.75 | 68 | 7.74 | < 6.75 | 5.2 | 2530 | 0.075 | 2339 | 1870 | 6.03 | 6.58 | 98 | > 30 | 7.38 | 3404 | 1070 | 24 | IC50 (Cytochrome P450 2B6): > 30 µM; Vz [19]: 8.86 L/kg; Tmax [20]: 2.01 h; bioavailability [21]: 99.6%; Emax [22]: 675%
